Source: US20240041870A1, “METHODS OF TREATING SYSTEMIC LUPUS ERYTHEMATOSUS” (AbbVie Inc., priority 2022, published 2024)

Experiments:
[1] = tested on: subjects with moderately to severely active SLE; assay: Exposure-response analysis (logistic regression) of upadacitinib steady-state Cavg vs efficacy endpoints; parameters: species or system human
Experimental: Quartile plots for the relationships between upadacitinib steady-state (SS) Cavg and efficacy responses at Week 24 are shown in FIG. 5A to 5C. Specifically, FIG. 5A is an exposure-response quartile plot for upadacitinib efficacy at week 24 for the efficacy endpoint of SLE Responder Index (SRI-4) and Steroid Dose ≤10 mg prednisone equivalent QD, FIG. 5B is an exposure-response quartile plot for upadacitinib efficacy at week 24 for the efficacy endpoint of BILAG-Based Combined Lupus Assessment (BICLA), and FIG. 5C is an exposure-response quartile plot for upadacitinib efficacy at week 24 for the efficacy endpoint of SLE Responder Index (SRI-4).
The highest upadacitinib steady-state (SS) Cavg quartile (which would be equivalent to 45 mg QD exposures) was consistently associated with the highest observed response across the three endpoints and was the primary driver for upadacitinib exposure-response trends. The exposure-response model-predicted median (90% prediction interval) percentage of subjects achieving SRI-4 and steroid dose ≤10 mg prednisone equivalent QD, BICLA, and SRI-4 at Week 24 is 50% (42% to 58%), 57% (50% to 65%), and 55% (47% to 62%), respectively, for upadacitinib 30 mg UPA QD compared to 38% (31% to 46%), 39% (32% to 46%), and 40% (32% to 47%), respectively, for placebo. A upadacitinib 45 mg QD dose is predicted to provide 6% to 8% greater responses compared to 30 mg QD.
Quartile plots for the relationships between upadacitinib Cavg and efficacy responses at Week 48 are shown in FIGS. 10A-10C (SRI-4 and steroid dose ≤10 mg prednisone equivalent, SRI-4, and BICLA, respectively). Based on logistic regression analysis, there is an exposure-response relationship (p <0.05) for upadacitinib with each of the Week 48 efficacy endpoints (SRI-4 and steroid dose (10 mg prednisone equivalent QD, BICLA, and SRI-4). […]

[2] = tested on: anti-dsDNA autoantibodies, complement C3 and C4, IgG, IgM, circulating B cells; assay: Biomarker analysis in Study M19-130; format: in vivo, human
Source text: Biospecimens (whole blood, peripheral blood mononuclear cells [PBMCs], plasma, and serum) were collected at specified time points throughout the study to evaluate known and/or novel disease-related or drug-related biomarkers. Types of biomarkers may have included nucleic acids, proteins, lipids, RNA, DNA, and/or metabolites. The objective of this research was to analyze samples for biomarkers that would help to understand SLE, related conditions, and response to treatment with upadacitinib or similar compounds.
Increased circulating memory, naïve, and total B cells were also observed.
The Week 48 predefined biomarker analyses confirmed the trends observed at Week 24.

## CC[C@@H]1CN(C(=O)NCC(F)(F)F)C[C@@H]1c1cnc2cnc3[nH]ccc3n12 [Upadacitinib, (3S,4R)-3-ethyl-4-(3H-imidazo[1,2-a]pyrrolo[2,3-e]pyrazin-8-yl)-N-(2,2,2-trifluoroethyl)pyrrolidine-1-carboxamide]
[1]; exposures associated with 30 mg QD, Week 24
  plateau for efficacy at the plasma exposures evaluated: not reached
[1]; logistic regression, p<0.05, Week 24
  relationship of upadacitinib plasma exposures with SRI-4 and steroid dose ≤10 mg prednisone equivalent, SRI-4, and BICLA at Week 24: statistically significant relationship
[1]; logistic regression, p<0.05, Week 48
  exposure-response relationship with SRI-4 and steroid dose ≤10 mg prednisone equivalent, SRI-4, and BICLA at Week 48: clear exposure-response relationship
[2]; 30 mg QD, Week 48 analysis
  anti-dsDNA autoantibodies: meaningful decreases
  complement C3 level: early reduction (a known effect of JAK inhibitors) followed by a progressive normalization
  complement C4 level: early reduction (a known effect of JAK inhibitors) followed by a progressive normalization
[2]; 30 mg, Week 24 analysis
  circulating memory B cells: Increased
  circulating naïve B cells: Increased
  circulating total B cells: Increased
  level of C3 complement compared to Baseline: significant decrease
  level of C4 complement compared to Baseline: significant decrease
  level of IgG: significant decreases
  level of IgM compared to Baseline: significant decrease
  level of anti-dsDNA autoantibodies: significant decreases
